# Experimental data from patent US7858635B2 (priority 2005, dated 2010).
# Key:
# [1] = molecular target: T1, M4 muscarinic receptor (Homo sapiens, UniProt P08173); assay: Functional mobilization of intracellular calcium (FLIPR, Fluo-3), M4-CHO cells; assay type: cell-based; conditions: compound nos. 1-454; for Emax: read-out: M4 Efficacy; for M4 Activity: M4-CHO cells, calcium mobilization
# T1 construct: expressed in transfected cells; host or cells: CHO cells (M4-CHO, under puromycin, zeocin and blasticidin selection)
# T1 sequence (P08173 1-479): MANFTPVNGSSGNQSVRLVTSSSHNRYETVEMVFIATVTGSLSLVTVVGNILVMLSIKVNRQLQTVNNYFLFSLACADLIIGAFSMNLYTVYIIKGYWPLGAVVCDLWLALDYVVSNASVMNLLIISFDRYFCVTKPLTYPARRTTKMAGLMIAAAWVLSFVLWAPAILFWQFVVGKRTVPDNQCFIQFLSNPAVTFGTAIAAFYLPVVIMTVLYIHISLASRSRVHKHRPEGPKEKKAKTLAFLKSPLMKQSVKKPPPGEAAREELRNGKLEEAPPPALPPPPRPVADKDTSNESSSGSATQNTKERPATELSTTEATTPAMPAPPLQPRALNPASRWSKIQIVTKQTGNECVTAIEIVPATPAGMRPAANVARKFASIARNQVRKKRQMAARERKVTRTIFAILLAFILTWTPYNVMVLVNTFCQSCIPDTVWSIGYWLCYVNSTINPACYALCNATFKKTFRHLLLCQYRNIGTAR
# Description: (§1) CHO cells expressing muscarinic receptors (M1 to M5) are grown as monolayers in tissue culture flasks at 37° C. in a humidified atmosphere containing 5% CO2 and passaged every 3-5 days. The growth media is Dulbecco's modified eagles medium (DMEM, Gibco Cat#12430-054), containing 25 mM Hepes and supplemented with Fetal Bovine Serum (Hyclone, cat# SH30071.03), 0.1 mM of MEM non-essential amino acids (GIBCO, Cat# 11140-050), 1 mM MEM Sodium Pyruvate (GIBCO Cat# 11360-070) and 100 units/ml of Penicillin G and 100 μg/ml of Streptomycin (GIBCO Cat# 15140-122). The recombinant muscarinic receptor cell lines are grown under antibiotic pressure with media containing 25 μm/ml zeocin and 500 μg/ml G418 (M1-CHO), 4 μg/ml puromycin, 50 μg/ml zeocin and 2.5 μm/ml blasticidin (M2 and M4-CHO) or 50 μg/ml zeocin and 4 μg/ml puromycin (M3 and M5-CHO).
# (§2) Cells are harvested at 80-90% confluence using Versene (GIBCO Cat# 15040-066), collected by centrifugation and seeded 18-24 hrs prior to running the calcium assay at a density of 5,000-10,000 cells/well in […], clear-bottomed 384-well plates (BD Biocoat, poly-D-lysine, Cat#356663). The day of the experiment, the cells are washed with a plate washer (Bioteck Instruments, ELX 405) using bath1 buffer (140-mM NaCl, 4.5-mM KCL, 2-mM CaCl2, 1-mM MgCl2, 10-mM Hepes-Na, 10-mM Glucose, pH 7.4, with NaOH) containing 1 mM Probenecid. Next, the calcium dye Fluo-3 (25 μl/well of Fluo-3 μM at 4 μM, Molecular Probes F-1241, in Bath 1 buffer containing 1 mM Probenecid) is added to the 25 μl of Bath 1 remaining in each well after the plate wash and the dye is loaded at 37° C. in the tissue culture incubator for 60-90 min. The fluorescent dye is removed using the plate washer with Bath 1 containing 1 mM Probenecid, leaving 25 μl/well of this solution after the wash. Alternatively, cells can be loaded with the calcium indicator from Molecular Devices (Calcium 3 Assay Reagents, Cat # R7181) adding 5 μl of a 5× solution dye in Bath 1 containing 1 mM Probenecid (10 ml per dye flask cat# R7182 to generate a solution 20×) to 20 μl of the same buffer. After loading for 60 min, the experiment can be run without having to remove the dye.
# (§3) Compounds are prepared at a 2× fold concentration in a 96-well plate (round bottom, Costar Corning cat# 3656), by reconstituting the pre-spotted compounds in bath 1 containing 1 mM probenecid. The final concentration DMSO is 0.5%, and the amount of DMSO is normalized across the assay plate. To determine an agonist action of the compounds on muscarinic receptors, the reconstituted compounds are added (25 μl compound/well) to the cell assay plate (containing 25 μl/well) using the multi-channel robotic system of the FLIPR 3 Instrument (Molecular Devices, Sunnyvale, Calif.). To determine a functional inhibitory action of the compounds on muscarinic receptors, the reconstituted compounds are added (25 μl compound/well) to the assay plate and pre-incubated for 15 min prior to adding 25 μl of Carbachol at 3× the EC80 for each muscarinic subtype. Alternatively, the compounds can be co-applied simultaneously with the agonist. In both assay modes, the fluorescence is recorded for 60 sec (excitation wavelength is […] and emission wavelength 540 nm) using the FLIPR 3 instrument.
# (§4) The potency, efficacy and selectivity of the muscarinic compounds were evaluated by screening the compound activity across the whole family (M1 to M5 cells). Compounds were also screened for activity on other proteins such as other GPCRs and ion channels to determine selectivity on M4 receptors.
# [2] = molecular target: T2, M1 muscarinic receptor (Homo sapiens, UniProt P11229); assay: Functional mobilization of intracellular calcium (FLIPR, Fluo-3), M1-CHO cells; assay type: cell-based; conditions: compound nos. 1-454; for Emax: read-out: M1 Efficacy; for M1 Activity: M1-CHO cells, calcium mobilization
# T2 construct: expressed in transfected cells; host or cells: CHO cells (M1-CHO, under zeocin and G418 selection)
# T2 sequence (P11229 1-460): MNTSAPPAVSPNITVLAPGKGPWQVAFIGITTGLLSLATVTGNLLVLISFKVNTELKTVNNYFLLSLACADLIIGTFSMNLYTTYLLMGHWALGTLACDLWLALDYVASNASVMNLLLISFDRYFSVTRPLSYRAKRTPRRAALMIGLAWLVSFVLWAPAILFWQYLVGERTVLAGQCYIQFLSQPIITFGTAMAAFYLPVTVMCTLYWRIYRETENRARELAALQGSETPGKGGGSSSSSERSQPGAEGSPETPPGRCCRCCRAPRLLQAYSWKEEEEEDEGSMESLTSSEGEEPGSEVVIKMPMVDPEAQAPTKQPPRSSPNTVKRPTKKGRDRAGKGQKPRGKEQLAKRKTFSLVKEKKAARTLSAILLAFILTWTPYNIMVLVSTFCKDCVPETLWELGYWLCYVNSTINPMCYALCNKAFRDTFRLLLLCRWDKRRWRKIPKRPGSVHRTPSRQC
# Description: as §1, §2, §3, §4
# [3] = 100% efficacy is the maximum response obtained with the Carbachol control
Structure (SMILES),"Emax [1, 3] [%]",M4 Activity [1],"Emax [2, 3] [%]",M1 Activity [2],"M4 Efficacy [1, 3]","M1 Efficacy [2, 3]"
CCOC(=O)N1C2CCC1CC(N1CCC3(CC1)CN(S(=O)(=O)c1ccc(F)cc1)c1ccc(F)cc13)C2 (stereo not drawn) [compound 40],> 70,++ (activity was measured to be between 0.1 μM and 4.0 μM),65 to 85,+++ (activity was measured to be less than or equal to 0.7 μM),–,–
CCOC(=O)N1CCC(N2CCC3(CC2)CN(C(=O)c2ccc(OC)cc2)c2ccc(F)cc23)CC1 [compound 41],> 70,+++ (activity was measured to be less than or equal to 0.1 μM),> 85,+++ (activity was measured to be less than or equal to 0.7 μM),–,–
CCOC(=O)N1C2CCC1CC(N1CCC3(CC1)COc1ccc(F)cc13)C2 (stereo not drawn) [compound 42],> 70,++ (activity was measured to be between 0.1 μM and 4.0 μM),> 85,+++ (activity was measured to be less than or equal to 0.7 μM),–,–
O=C(O[C@@H]1CCOC1)N1C2CCC1CC(N1CCC3(CCc4ccccc43)CC1)C2 (stereo partly drawn) [compound 43],> 70,+ (activity was measured to be greater than or equal to 4.0 μM),> 85,+++ (activity was measured to be less than or equal to 0.7 μM),–,–
COC(=O)N1C2CCC1CC(N1CCC3(CC1)CN(C(=O)c1cc(C)n(C)n1)c1ccc(F)cc13)C2 (stereo not drawn) [compound 44],> 70,++ (activity was measured to be between 0.1 μM and 4.0 μM),65 to 85,+++ (activity was measured to be less than or equal to 0.7 μM),–,–
CCOC(=O)N1CCC(N2CCC3(CC2)CN(C(=O)c2cccc(OC)c2)c2ccc(F)cc23)CC1 [compound 45],55 to 70,+++ (activity was measured to be less than or equal to 0.1 μM),> 85,+++ (activity was measured to be less than or equal to 0.7 μM),–,–
CCOC(=O)N1CCC(CN2CCC3(CC2)CN(C(C)=O)c2ccc(C)cc23)CC1 [compound 46],55 to 70,+++ (activity was measured to be less than or equal to 0.1 μM),> 85,+++ (activity was measured to be less than or equal to 0.7 μM),–,–
CC(=O)N1CC2(CCN(C3CC4CCC(C3)N4C(=O)O[C@H]3CCOC3)CC2)c2cc(F)ccc21 (stereo partly drawn) [compound 47],55 to 70,++ (activity was measured to be between 0.1 μM and 4.0 μM),65 to 85,+++ (activity was measured to be less than or equal to 0.7 μM),–,–
CN(C)C(=O)N1CC2(CCN(C3CCN(C(=O)OCCF)CC3)CC2)c2cc(F)ccc21 [compound 48],55 to 70,++ (activity was measured to be between 0.1 μM and 4.0 μM),> 85,+++ (activity was measured to be less than or equal to 0.7 μM),–,–
CCOC(=O)N1CCC(N2CCC3(CC2)CN(C(=O)O[C@H]2CCOC2)c2ccc(F)cc23)CC1 [compound 49],–,+++ (activity was measured to be less than or equal to 0.1 μM),–,+++ (activity was measured to be less than or equal to 0.7 μM),++ (efficacy was calculated to be between 70% and 55%),+++ (efficacy was calculated to be 85% or more)
CCOC(=O)N1C2CCC1CC(N1CCC3(CC1)CN(C(=O)c1cc(C)n(C)n1)c1ccc(F)cc13)C2 (stereo not drawn) [compound 50],> 70,++ (activity was measured to be between 0.1 μM and 4.0 μM),> 85,+++ (activity was measured to be less than or equal to 0.7 μM),–,–
Cc1ccc2c(c1)C1(CCN(C3CC4CCC3C4)CC1)CN2C(=O)C1CC1 (stereo not drawn) [compound 51],55 to 70,++ (activity was measured to be between 0.1 μM and 4.0 μM),65 to 85,+++ (activity was measured to be less than or equal to 0.7 μM),–,–
CC(=O)N1CC2(CCN(C3CCCCC3C)CC2)c2cc(F)ccc21 (stereo not drawn) [compound 52],55 to 70,+++ (activity was measured to be less than or equal to 0.1 μM),> 85,+++ (activity was measured to be less than or equal to 0.7 μM),–,–
CCOC(=O)N1CCC(N2CCC3(CC2)CN(C(=O)c2ccccc2C)c2ccc(F)cc23)CC1 [compound 53],55 to 70,++ (activity was measured to be between 0.1 μM and 4.0 μM),< 65,++ (activity was measured to be between 0.7 μM and 3.0 μM),–,–
CC(C)OC(=O)N1CCC(N2CCC3(CC2)CN(C(=O)N(C)C)c2ccc(F)cc23)CC1 [compound 54],55 to 70,++ (activity was measured to be between 0.1 μM and 4.0 μM),> 85,+++ (activity was measured to be less than or equal to 0.7 μM),–,–
CC(C)C(=O)N[C@H]1CC2(CCN(C[C@H]3C[C@H]4CC[C@H]3C4)CC2)c2ccccc21 [compound 55],55 to 70,+++ (activity was measured to be less than or equal to 0.1 μM),> 85,+++ (activity was measured to be less than or equal to 0.7 μM),–,–
CCOC(=O)N1C2CCC1CC(N1CCC3(CC1)CC(=O)Nc1ccccc13)C2 (stereo not drawn) [compound 56],55 to 70,+++ (activity was measured to be less than or equal to 0.1 μM),65 to 85,+++ (activity was measured to be less than or equal to 0.7 μM),–,–
O=C(C1CC1)N1CC2(CCN(C3CC4CCC(C3)N4C(=O)O[C@H]3CCOC3)CC2)c2cc(F)ccc21 (stereo partly drawn) [compound 57],55 to 70,+++ (activity was measured to be less than or equal to 0.1 μM),65 to 85,+++ (activity was measured to be less than or equal to 0.7 μM),–,–
